Test results reported in paper PMC9312958, “A Novel and Selective Dopamine Transporter Inhibitor, (S)-MK-26, Promotes Hippocampal Synaptic Plasticity and Restores Effort-Related Motivational Dysfunctions” (Biomolecules, 2022).

Tested on: adult male Sprague Dawley rats
Assay: FR5/chow feeding choice task
Assay type: in vivo, rat
Method: Pharmacological agents: (S)-MK-26 was obtained from the Lubec Laboratory (University of Vienna, Austria) and dissolved in dimethyl sulfoxide (DMSO) (10%), Tween 80 (15%), and 0.9% saline (75%). The DMSO/Tween 80/saline mixture was administered as the vehicle control. The dose range was selected as 3.75–45.0 mg/kg based on its DAT affinity and pilot studies. It was administered 30 min before testing. TBZ (9,10-dimethoxy3-(2-methylpropyl)-1,3,4,6,7, 11b hexahydrobenzo[a]quinolizin2-one) was obtained from Tocris Bioscience (Ellisville, MO) and was dissolved in DMSO (20%) and 0.9% saline (80%) and was titrated with 1.0 N HCl until the drug was dissolved at a pH of 4.0–4.5. The DMSO/saline solution with equal amounts of HCl was administered as the vehicle control. The selected dose was 1.0mg/kg based on the previous research from our laboratory. It was administered 120 min prior to testing.
FR5/chow feeding choice task: A total of 8 adult male Sprague Dawley rats (Envigo Sprague Dawley, Indianapolis, IN, USA; weights 275–299 g upon arrival) were pair-housed in a colony maintained at 23 °C, with a 12 h light/dark cycle (lights on 07:00). Rats were food deprived to 85% of their free-feeding body weight with modest growth throughout the experiment and water was available ad libitum in their home cages. All the animal protocols were approved by the University of Connecticut Institutional Animal Care and Use Committee, and the experiments were completed according to National Institutes of Health guidelines.
Behavioral sessions were conducted in operant chambers (28 × 23 × 23 cm^3; Med Associates, Fairfax, VT, USA) with 30 min sessions 5 days/week. Rats were initially trained to lever press on magazine training for 3 days, followed by an FR1 schedule for 3 days (high-carbohydrate 45-mg pellets, Bio-Serv, Frenchtown, NJ, USA), and then moved to the FR5 schedule. After 5 weeks of training on the FR5 schedule, lab chow was introduced as the concurrently available choice food (Laboratory Diet, 5P00 Prolab RMH 3000, Purina Mills, St. Louis, MO, USA; typically 15–20 g). At the end of each session, rats were immediately removed from the chambers. The number of lever pressing was recorded and the amount of consumed chow was calculated by weighing the remaining food, including spillage. Rats were trained on the FR5/chow feeding choice task for 5 weeks, after which drug testing began.
To test the effects of (S)-MK-26 on FR5/Chow feeding choice task, trained rats were administered either with TBZ (1.0 mg/kg) or vehicle 120 min before testing, and (S)-MK-26 also with doses of 15.0, 30.0, 45.0 mg/kg or vehicle 30 min before testing, via intraperitoneal (IP) injections on drug testing days. A repeated-measures design was utilized where each rat received each drug treatment in a randomly varied order, once per week. The following five treatment combinations were given: TBZ vehicle + (S)-MK-26 vehicle; 1.0 mg/kg TBZ + (S)-MK-26 vehicle; 1.0 mg/kg TBZ + 15.0 mg/kg (S)-MK-26; 1.0 mg/kg TBZ + 30.0 mg/kg (S)-MK-26; 1.0 mg/kg TBZ + 45.0 mg/kg (S)-MK-26. Next, to see if the effects of lower doses, the following four treatment combinations were given in a repeated measure design: TBZ vehicle + (S)-MK-26 vehicle; 1.0 mg/kg TBZ + (S)-MK-26 vehicle; 1.0 mg/kg TBZ + 3.75 mg/kg (S)-MK-26; 1.0 mg/kg TBZ + 7.5 mg/kg (S)-MK-26.

[1] = 15.0, 30.0 and 45.0 mg/kg i.p. coadministered with 1.0 mg/kg TBZ

Structure (SMILES): [O-][S@@+](Cc1cncs1)C(c1cccc(Cl)c1)c1cccc(Cl)c1 [(S)-MK-26, (S)-5-(((B(3-chlorophenyl)methyl)sulphinyl)methyl)thiazole]
- effect on TBZ-induced change in chow intake [1]: significantly attenuated the effects of TBZ
- effect on TBZ-induced change in lever pressing [1]: significantly attenuated the effects of TBZ
- potency in effort-based choice tests compared to other modafinil analogs (comparison with earlier studies): lower potency than (S,S)-CE-158
- reversal of TBZ effects on lever pressing and chow intake (low-dose progression 3.75 and 7.5 mg/kg i.p. with 1.0 mg/kg TBZ): failed to reverse the effects of TBZ
